Data taken from patent US10660877B2 (BRISTOL-MYERS SQUIBB COMPANY, priority 2016, dated 2020).
Like-named read-outs stand apart in the source and are kept apart here.

Key:
human TLR7 = human TLR7 (Homo sapiens (Human), UniProt Q9NYK1); assay: TLR7 inhibition reporter assay (HEK-Blue cells, SEAP reporter, gardiquimod stimulation); format: cell-based
human TLR8 = human TLR8 (Homo sapiens (Human), UniProt Q9NR97); assay: TLR8 inhibition reporter assay (HEK-Blue cells, SEAP reporter, R848 stimulation);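 also: compounds tested from 0.05 nM to 50 µM, 22 h at 37 °C, SEAP measured with HEK-Blue Detection, inhibition relative to agonist plus DMSO versus a known inhibitor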
human TLR8, sequence (Q9NR97 27-1041): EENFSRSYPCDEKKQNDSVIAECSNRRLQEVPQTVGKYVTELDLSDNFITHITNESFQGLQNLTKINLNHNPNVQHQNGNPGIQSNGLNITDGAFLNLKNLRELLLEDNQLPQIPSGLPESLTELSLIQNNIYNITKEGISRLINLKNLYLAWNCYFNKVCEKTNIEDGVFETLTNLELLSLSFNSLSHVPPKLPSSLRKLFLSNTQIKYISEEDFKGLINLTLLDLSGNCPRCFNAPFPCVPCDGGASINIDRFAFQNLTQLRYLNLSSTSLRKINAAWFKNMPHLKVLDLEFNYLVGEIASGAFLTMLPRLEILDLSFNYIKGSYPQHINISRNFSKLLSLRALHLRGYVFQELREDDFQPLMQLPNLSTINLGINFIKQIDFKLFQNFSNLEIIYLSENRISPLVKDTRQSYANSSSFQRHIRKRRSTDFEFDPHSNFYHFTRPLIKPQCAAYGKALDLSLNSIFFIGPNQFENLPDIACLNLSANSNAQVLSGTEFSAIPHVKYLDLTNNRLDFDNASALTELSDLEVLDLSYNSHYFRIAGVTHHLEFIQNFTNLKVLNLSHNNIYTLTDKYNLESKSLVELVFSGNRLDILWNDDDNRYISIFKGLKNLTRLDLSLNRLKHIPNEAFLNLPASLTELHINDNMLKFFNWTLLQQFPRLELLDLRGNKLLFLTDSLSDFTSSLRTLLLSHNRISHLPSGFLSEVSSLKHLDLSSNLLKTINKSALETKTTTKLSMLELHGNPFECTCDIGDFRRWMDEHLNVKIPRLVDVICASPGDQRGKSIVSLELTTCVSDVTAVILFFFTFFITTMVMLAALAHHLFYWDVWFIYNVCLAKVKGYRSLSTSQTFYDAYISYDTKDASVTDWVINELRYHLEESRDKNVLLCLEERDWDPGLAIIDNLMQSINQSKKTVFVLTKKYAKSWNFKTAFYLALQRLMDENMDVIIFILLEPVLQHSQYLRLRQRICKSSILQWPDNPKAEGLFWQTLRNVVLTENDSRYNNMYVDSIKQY

human TLR9 = human TLR9 (Homo sapiens (Human), UniProt Q9NR96); assay: TLR9 inhibition reporter assay (HEK-Blue cells, SEAP reporter, ODN2006 stimulation);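 also: compounds tested over 0.05 nM to 50 µM, 22 h incubation, inhibition taken as SEAP signal drop from agonist plus DMSO wells toward a known inhibitor control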
human TLR9, sequence (Q9NR96 26-1032): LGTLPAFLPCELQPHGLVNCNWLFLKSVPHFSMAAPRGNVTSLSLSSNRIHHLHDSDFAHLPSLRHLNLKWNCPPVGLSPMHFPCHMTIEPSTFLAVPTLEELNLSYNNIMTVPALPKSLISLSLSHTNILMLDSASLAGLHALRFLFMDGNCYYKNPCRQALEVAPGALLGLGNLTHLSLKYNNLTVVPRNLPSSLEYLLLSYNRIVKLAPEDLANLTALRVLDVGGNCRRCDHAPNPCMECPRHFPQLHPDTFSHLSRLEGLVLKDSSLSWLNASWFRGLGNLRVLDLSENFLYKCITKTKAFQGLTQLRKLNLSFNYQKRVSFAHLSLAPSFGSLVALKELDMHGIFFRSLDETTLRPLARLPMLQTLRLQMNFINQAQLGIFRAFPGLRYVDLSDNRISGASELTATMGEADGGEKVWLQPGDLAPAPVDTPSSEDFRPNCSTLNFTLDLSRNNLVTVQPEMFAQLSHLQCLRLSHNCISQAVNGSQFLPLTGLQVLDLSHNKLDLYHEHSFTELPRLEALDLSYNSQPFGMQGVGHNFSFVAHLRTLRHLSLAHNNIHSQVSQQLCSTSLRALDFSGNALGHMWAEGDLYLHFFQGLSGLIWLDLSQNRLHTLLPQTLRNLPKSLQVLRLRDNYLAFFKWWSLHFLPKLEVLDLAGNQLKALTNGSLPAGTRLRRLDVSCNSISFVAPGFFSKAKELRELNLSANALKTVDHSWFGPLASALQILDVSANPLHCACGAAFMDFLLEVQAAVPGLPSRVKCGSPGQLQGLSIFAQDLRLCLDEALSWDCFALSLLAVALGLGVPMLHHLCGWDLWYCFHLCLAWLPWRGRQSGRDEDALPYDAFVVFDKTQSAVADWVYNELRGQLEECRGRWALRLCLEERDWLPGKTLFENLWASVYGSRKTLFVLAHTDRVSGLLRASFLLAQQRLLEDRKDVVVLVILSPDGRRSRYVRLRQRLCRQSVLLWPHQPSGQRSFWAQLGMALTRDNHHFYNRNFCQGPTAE

[1] = HEK-Blue cells overexpressing human TLR7, gardiquimod 7.5 μM
[2] = read-out: TLR8 IC50, HEK-Blue cells overexpressing human TLR8, R848 15.9 μM
[3] = read-out: TLR9 IC50, HEK-Blue cells overexpressing human TLR9, ODN2006 5 nM
[4] = HEK-Blue cells, gardiquimod 7.5 μM
[5] = read-out: TLR8 IC50, HEK-Blue cells, R848 15.9 μM
[6] = read-out: TLR9 IC50, HEK-Blue cells, ODN2006 5 nM

human TLR7, sequence (Q9NYK1 27-1049): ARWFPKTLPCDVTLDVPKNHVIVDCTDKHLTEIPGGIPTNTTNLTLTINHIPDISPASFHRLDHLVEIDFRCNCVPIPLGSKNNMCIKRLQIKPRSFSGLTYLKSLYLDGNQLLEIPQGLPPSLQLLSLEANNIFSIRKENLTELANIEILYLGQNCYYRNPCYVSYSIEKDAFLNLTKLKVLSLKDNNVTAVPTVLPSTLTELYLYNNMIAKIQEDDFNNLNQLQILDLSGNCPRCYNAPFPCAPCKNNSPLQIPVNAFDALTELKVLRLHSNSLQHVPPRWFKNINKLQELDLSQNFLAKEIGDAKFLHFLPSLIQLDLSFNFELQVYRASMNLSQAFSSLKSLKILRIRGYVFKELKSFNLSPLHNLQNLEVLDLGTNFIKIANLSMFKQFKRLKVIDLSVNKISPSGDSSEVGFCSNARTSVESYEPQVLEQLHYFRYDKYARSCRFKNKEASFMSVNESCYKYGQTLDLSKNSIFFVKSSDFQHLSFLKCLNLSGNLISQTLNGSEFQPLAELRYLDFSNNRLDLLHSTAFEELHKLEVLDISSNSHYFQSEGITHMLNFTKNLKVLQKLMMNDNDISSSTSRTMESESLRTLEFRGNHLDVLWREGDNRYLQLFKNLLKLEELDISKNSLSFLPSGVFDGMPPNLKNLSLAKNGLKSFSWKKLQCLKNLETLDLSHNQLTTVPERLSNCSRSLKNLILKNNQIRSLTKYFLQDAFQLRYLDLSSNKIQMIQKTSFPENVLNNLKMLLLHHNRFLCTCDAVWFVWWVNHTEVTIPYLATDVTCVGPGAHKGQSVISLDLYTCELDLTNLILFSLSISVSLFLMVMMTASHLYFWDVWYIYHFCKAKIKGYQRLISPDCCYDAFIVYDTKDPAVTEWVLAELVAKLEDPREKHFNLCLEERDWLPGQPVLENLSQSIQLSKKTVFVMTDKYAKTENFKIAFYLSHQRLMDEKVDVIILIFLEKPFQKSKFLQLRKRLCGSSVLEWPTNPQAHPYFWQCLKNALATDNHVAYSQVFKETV

SMILES | IC50 (human TLR7; [1]) [nM] | IC50 (human TLR8; [2]) [nM] | IC50 (human TLR9; [3]) [nM] | IC50 (human TLR7; [4]) [nM] | IC50 (human TLR8; [5]) [nM] | IC50 (human TLR9; [6]) [nM] | IC50 (human TLR8; TLR8 IC50, HEK-Blue cells overexpressing human TLR8, R848 15.9 μM) [nM] | IC50 (human TLR9; TLR9 IC50, HEK-Blue cells overexpressing human TLR9, ODN2006 5 nM) [nM]
Cc1cc(-c2[nH]c3ccc(C4CCN(C(=O)CN5CCCS5(=O)=O)CC4)cc3c2C(C)C)cc(C)n1 [Example 152, 1-(4-(2-(2,6-dimethylpyridin-4-yl)-3-isopropyl-1H-indol-5-yl)piperidin-1-yl)-2-(1,1-dioxidoisothiazolidin-2-yl)ethan-1-one] | 5 | 49.8 | 30400 |  |  |  |  | 
Cc1cc(-c2[nH]c3ccc(C4CCN(C5CCOCC5)CC4)cc3c2C(C)C)cc(C)n1 [Example 450, 2-(2,6-dimethylpyridin-4-yl)-3-isopropyl-5-(1-(tetrahydro-2H-pyran-4-yl)piperidin-4-yl)-1H-indole] | 7.8 | 7.9 | 572 |  |  |  |  | 
Cc1cc(-c2[nH]c3ccc(C4CCN(CCC(F)(F)F)CC4)cc3c2C(C)C)cc(C)n1 [Example 677, 2-(2,6-dimethylpyridin-4-yl)-3-isopropyl-5-(1-(3,3,3-trifluoropropyl)piperidin-4-yl)-1H-indole] | 3.4 | 6.7 | 1690 |  |  |  |  | 
CC(C)c1c(-c2cc(C3CC3)ncc2F)[nH]c2ccc(C3CCN(CC(=O)N(C)C)CC3)cc12 [Example 515, 2-(4-(2-(2-cyclopropyl-5-fluoropyridin-4-yl)-3-isopropyl-1H-indol-5-yl)piperidin-1-yl)-N,N-dimethylacetamide] | 19.8 | 136 | 2220 |  |  |  |  | 
Cc1cc(-c2[nH]c3ccc(C4CCN(C(=O)C5CCOC(C(C)C)C5)CC4)cc3c2C(C)C)cc(C)n1 (stereo not drawn) [Example 200, (4-(2-(2,6-dimethylpyridin-4-yl)-3-isopropyl-1H-indol-5-yl)piperidin-1-yl)(2-isopropyltetrahydro-2H-pyran-4-yl) methanone] | 44.4 | 409 | 11200 |  |  |  |  | 
CCOC(=O)N1CCC(c2ccc3[nH]c(-c4ccnc(C)c4)c(C(C)C)c3c2)CC1 [Example 560, ethyl 4-(3-isopropyl-2-(2-methylpyridin-4-yl)-1H-indol-5-yl)piperidine-1-carboxylate] | 247 | 607 | 10400 |  |  |  |  | 
Cc1cc(-c2[nH]c3ccc(C4CCN(Cc5cnc(C)[nH]5)CC4)cc3c2C(C)C)ccn1 [Example 821, 3-isopropyl-5-(1-((2-methyl-1H-imidazol-5-yl)methyl)piperidin-4-yl)-2-(2-methylpyridin-4-yl)-1H-indole] |  |  |  | 36.3 | 4.8 | 192 |  | 
Cc1cc(-c2[nH]c3ccc(C4CCN(CC(=O)NC5(C)CC5)CC4)cc3c2C(C)C)cc(C)n1 [Example 251, 2-(4-(2-(2,6-dimethylpyridin-4-yl)-3-isopropyl-1H-indol-5-yl)piperidin-1-yl)-N-(1-methylcyclopropyl)acetamide] | 4.3 | 9 | 817 |  |  |  |  | 
CCC(O)CN1CCC(c2ccc3[nH]c(-c4ccnc(C)c4)c(C(C)C)c3c2)CC1 (stereo not drawn) [Example 664, 1-(4-(3-isopropyl-2-(2-methylpyridin-4-yl)-1H-indol-5-yl)piperidin-1-yl)butan-2-ol] | 10.2 | 4.5 | 1570 |  |  |  |  | 
Cc1cc(-c2[nH]c3ccc(C4CCN(C(=O)C5(C)CC5)CC4)cc3c2C(C)C)ccn1 [Example 610, (4-(3-isopropyl-2-(2-methylpyridin-4-yl)-1H-indol-5-yl)piperidin-1-yl)(1-methylcyclopropyl)methanone] | 48.6 | 163 | 47300 |  |  |  |  | 
CNCCN1CCC(c2ccc3[nH]c(-c4cc(Cl)ncc4OC)c(C)c3c2)CC1 [Example 757, 2-(4-(2-(2-chloro-5-methoxypyridin-4-yl)-3-methyl-1H-indol-5-yl)piperidin-1-yl)-N-methylethan-1-amine] | 6670 | 93.2 | 1300 |  |  |  |  | 
Cc1cc(-c2[nH]c3ccc(C4CCN(C(=O)CNC(CO)CC(C)C)CC4)cc3c2C(C)C)cc(C)n1 (stereo not drawn) [Example 382, 1-(4-(2-(2,6-dimethylpyridin-4-yl)-3-isopropyl-1H-indol-5-yl)piperidin-1-yl)-2-((1-hydroxy-4-methylpentan-2-yl)amino)ethan-1-one] | 7.6 | 44.1 | 769 |  |  |  |  | 
COc1cc(-c2[nH]c3ccc(C4CCN(C5CCN(C6CCCC6)CC5)CC4)cc3c2C(C)C)ccn1 [Example 802, 5-(1′-cyclopentyl-[1,4′-bipiperidin]-4-yl)-3-isopropyl-2-(2-methoxypyridin-4-yl)-1H-indole] | 389 | 99.3 | 487 |  |  |  |  | 
CCc1c(-c2ccnc(C)c2)[nH]c2ccc(C3CCN(C[C@@H]4CCCN4)CC3)cc12 [Example 740, (S)-3-ethyl-2-(2-methylpyridin-4-yl)-5-(1-(pyrrolidin-2-ylmethyl)piperidin-4-yl)-1H-indole] | 67.9 |  |  |  |  |  | 6 | 111
Cc1cc(-c2[nH]c3ccc(C4CCN(C(=O)CN5C[C@H](C)C[C@@H]5CO)CC4)cc3c2C(C)C)cc(C)n1 [Example 410, 1-(4-(2-(2,6-dimethylpyridin-4-yl)-3-isopropyl-1H-indol-5-yl)piperidin-1-yl)-2-((2R,4R)-2-(hydroxymethyl)-4-methylpyrrolidin-1-yl)ethan-1-one] | 4.5 | 27 | 481 |  |  |  |  | 
Cc1cc(-c2[nH]c3ccc(C4CCN(Cc5[nH]cnc5C)CC4)cc3c2C(C)C)ccn1 [Example 744, 3-isopropyl-5-(1-((4-methyl-1H-imidazol-5-yl)methyl)piperidin-4-yl)-2-(2-methylpyridin-4-yl)-1H-indole] | 28.1 | 13.5 | 281 |  |  |  |  | 

Second part, the compound after the results:

IC50 (human TLR7; [1]) [nM] | IC50 (human TLR8; [2]) [nM] | IC50 (human TLR9; [3]) [nM] | IC50 (human TLR7; [4]) [nM] | IC50 (human TLR8; [5]) [nM] | IC50 (human TLR9; [6]) [nM] | IC50 (human TLR8; TLR8 IC50, HEK-Blue cells overexpressing human TLR8, R848 15.9 μM) [nM] | IC50 (human TLR9; TLR9 IC50, HEK-Blue cells overexpressing human TLR9, ODN2006 5 nM) [nM] | SMILES
 |  |  | 15.4 | 33.6 | 445 |  |  | Cc1cc(-c2[nH]c3ccc(C4CCN(CC5CCN(C(C)C)CC5)CC4)c(F)c3c2C(C)C)ccn1 [Example 874, 4-fluoro-3-isopropyl-5-(1-((1-isopropylpiperidin-4-yl)methyl)piperidin-4-yl)-2-(2-methylpyridin-4-yl)-1H-indole]
8.6 | 6.7 | 267 |  |  |  |  |  | Cc1ccc(CN2CCC(c3ccc4[nH]c(-c5cc(C)nc(C)c5)c(C(C)C)c4c3)CC2)cn1 [Example 437, 2-(2,6-dimethylpyridin-4-yl)-3-isopropyl-5-(1-((6-methylpyridin-3-yl)methyl)piperidin-4-yl)-1H-indole]
 |  |  | 13.2 | 12.3 | 803 |  |  | Cc1cc(-c2[nH]c3ccc(C4CCN(C(C)C)CC4)cc3c2C(C)C)ccn1 [Example 869, 3-isopropyl-5-(1-isopropylpiperidin-4-yl)-2-(2-methylpyridin-4-yl)-1H-indole]
 |  |  | 6.2 | 25.4 | 3080 |  |  | Cc1cc(-c2[nH]c3cc(F)c(C4CCN(Cc5ncn(C)n5)CC4)cc3c2C(C)C)cc(C)n1 [Example 832, 2-(2,6-dimethylpyridin-4-yl)-6-fluoro-3-isopropyl-5-(1-((1-methyl-1H-1,2,4-triazol-3-yl)methyl)piperidin-4-yl)-1H-indole]
2.8 | 23.9 | 322 |  |  |  |  |  | Cc1cc(-c2[nH]c3ccc(C4CCN(C(=O)C5(C)CCNCC5)CC4)cc3c2C(C)C)cc(C)n1 [Example 197, (4-(2-(2,6-dimethylpyridin-4-yl)-3-isopropyl-1H-indol-5-yl)piperidin-1-yl)(4-methylpiperidin-4-yl)methanone]
1530 | 3250 | 6040 |  |  |  |  |  | Cc1ccc(OC(=O)N2CCC(c3ccc4[nH]c(-c5ccnc(C)c5)c(C(C)C)c4c3)CC2)cc1 [Example 557, p-Tolyl 4-(3-isopropyl-2-(2-methylpyridin-4-yl)-1H-indol-5-yl)piperidine-1-carboxylate]
33.4 | 79.1 | 2140 |  |  |  |  |  | CCc1cc(-c2[nH]c3ccc(C4CCNCC4)cc3c2C(C)C)cc(OC)n1 [Example 487, 2-(2-ethyl-6-methoxypyridin-4-yl)-3-isopropyl-5-(piperidin-4-yl)-1H-indole]
7.8 | 73.8 | 1070 |  |  |  |  |  | CCC(C)CN(CCO)CC(=O)N1CCC(c2ccc3[nH]c(-c4cc(C)nc(C)c4)c(C(C)C)c3c2)CC1 (stereo not drawn) [Example 406, 1-(4-(2-(2,6-dimethylpyridin-4-yl)-3-isopropyl-1H-indol-5-yl)piperidin-1-yl)-2-((2-hydroxyethyl)(2-methylbutyl)amino)ethan-1-one]
42.7 | 27.1 | 437 |  |  |  |  |  | COc1cc(-c2[nH]c3ccc(C4CCN(Cc5c[nH]c(C)n5)CC4)cc3c2C(C)C)ccn1 [Example 520, 3-isopropyl-2-(2-methoxypyridin-4-yl)-5-(1-((2-methyl-1H-imidazol-4-yl)methyl)piperidin-4-yl)-1H-indole]
11.2 | 2.5 | 282 |  |  |  |  |  | Cc1cc(-c2[nH]c3ccc(C4CCN(C[C@@H]5CCNC5)CC4)cc3c2C(C)C)ccn1 [Example 738, (R)-3-isopropyl-2-(2-methylpyridin-4-yl)-5-(1-(pyrrolidin-3-ylmethyl)piperidin-4-yl)-1H-indole]
 |  |  | 36.2 | 7.6 | 400 |  |  | Cc1cc(-c2[nH]c3ccc(C4CCN(Cc5cnc[nH]5)CC4)cc3c2C(C)C)c(N)cn1 [Example 823, 4-(5-(1-((1H-imidazol-5-yl)methyl)piperidin-4-yl)-3-isopropyl-1H-indol-2-yl)-6-methylpyridin-3-amine]
